“And” between values parts separate entries of the source, which are not always exact repeats. Equal entries are not always repeated. “Also recorded” adds a separate entry of the source. Where two headings read alike, the source gives them in different places.
Experiments:
HUVEC cells [1] = assay: Cell-ELISA: binding of anti β2GPI antibodies to HUVEC cells; format: cell-based, Human
Experimental: Human β2GPI is a plasma phospholipid binding protein that is required for the binding of autoantibodies in sera from patients with APS to cardiolipin (McNeil H P et al., 1990 Proc. Natl. Acad. Sci. 87, 4120–4124). […] Anti β2GPI antibodies are present in sera of APS patients. […] For cell-ELISA tests, HUVEC cells (at 40,000/well), were plated on 96 well tissue culture plates (Nunc) in 200 μl of the culture medium, and allowed to grow for 18–22 hours. Following 2 washes with Hepes buffer (10 mM Hepes pH 8, 140 mM NaCl) and 5 min incubation with the culture medium, the wells were incubated for 3 hr with 10% of normal plasma in PBS (as a source of β2 GPI protein), supplemented with 1/500 of goat anti-human Apolipoprotein-H (β2 GPI) (Affinity biologicals, PA). Parallel control wells were incubated with 10% of normal plasma from Ilex. Serial dilutions of NST500 compounds were prepared in plasma/PBS. Washes and development were as described for anti CL ELISA.
As presented in FIG. 5B, in the presence of plasma and absence of NST500, HUVEC cells supported binding of anti β2GPI to their surface. However, displacement of anti β2GPI by NST500 compounds in this system occurred in a concentration dependent manner, similar to the results obtained with CL.

thrombin = molecular target: T1, thrombin (Homo sapiens, UniProt P00734); assay: Direct effect on thrombin activity in vitro; format: biochemical; details: commercially available thrombin and chromogenic substrate; not shown
T1 construct: purchased

activated platelets = details: 2 μM
Experimental: Exposure of PS on the outer leaflet of platelets upon their activation is essential for efficient activation of coagulation factors. […] Fresh platelets were received from the Blood Bank in Beilinson Hospital, Israel. The platelets were centrifuged (10 minutes, 2700×g), washed and re-suspended in platelets buffer (137 mM NaCl, 2 mM MgCl2, 0.5 mM NaPi, 5 mM glucose and 20 mM Hepes pH 7.4). 100 μl of platelets were diluted 10 fold and activated for 10 minutes with 2 μM of the calcium ionophore A23187 in the presence of 5 mM of CaCl2. […] The platelets were then washed with platelets buffer and incubated with 5 μg/ml of streptavidin conjugated to fluorescein (FITC). Incubation was for 15 minutes at room temperature, followed by a wash and suspention in platelets buffer. The labeled platelets were subjected to a FACS analysis as described above.

HUVEC cells [2] = assay: Thrombin generation by HUVEC cells; format: cell-based, Human
Excerpt: In vivo, vascular endothelial cells are known to catalyze the formation of thrombin, due to expression of PS on their plasma membrane, at which pro-coagulant complexes are assembled (Van Hardee W L et al., 1994, Biochem J. 302, 305–312). Endothelial cells (EC) play an active role in determining the pro-coagulant/anti-coagulant balance in the vascular system (Gimborne M A et al., 1995, Ann. N. Y. Acad Sci 748, 122–132). Perturbed endothelial cells dramatically increase their pro-coagulant state. […] (FIG. 4D). When HUVEC cells (1.5×10^5) were incubated with the S-2366 substrate, thrombin generation was evident after a lag time of 12.5 minutes, which reflects the time required to assemble a functional complex on the HUVEC surface.
The effect of NST516 compound on HUVEC mediated-thrombin generation was studied.

cardiolipin = test system: cardiolipin
Excerpt: The antiphospholipid antibody syndrom (APS) is a thrombophilic condition, characterized by a panel of antibodies that recognize anionic phospholipid-protein cofactor complexes. The antiphospholipid antibodies lupus anticoagulant and anticardiolipin, (present in high concentrations in SLE patients), are associated with several medical disorders including artherial and venous thrombosis, and recurrent pregnancy loss (Rand J H et al., 1998, Blood. 92, 1652–1660). […] Noncellular negatively charged phospholipid coated surface (cardiolipin) were chosen as a target for binding.
CL, (Diphosphatidylglycerol, c-1649, Sigma), prepared at 50 μg/ml in ethanol, was added to a 96 well plate (100 μl/well) using Immunolon 4 plates (Dynatech, Chantilly, Va.) and incubated for 16–20 hr for evaporation of ethanol. As control, wells were coated with ethanol only. The coated plates were washed 3 times with 100 μl of blocking buffer (PBS containing 0.3% gelatin (Sigma) and 1 mM EDTA) to block non specific binding. A 5 min incubation time was used between each wash. Normal plasma (Ilex, Italy, 84670-11) and plasma derived from SLE patients (either from Gradipore, Australia, LAHP-1, or from Biopool, Ventura, Calif.) were prepared according to the producer's instruction. The plasma was diluted 1/10 in the blocking buffer and was added to the CL and ethanol coated wells. […] Following 3 hr incubation, the plates were washed twice with PBS/BSA buffer (0.4% bovine serum albumine (BSA) in PBS). For detection of anti cardiolipin binding property of the tested plasma, the plates were incubated with a 1/10000 dilution of Peroxidase-conjugated affinity purified Goat anti-human IgG (Jackson Immunoresearch lab.) in PBS/BSA buffer for 1 hour. The plates were then washed 3 times with PBS/BSA buffer, and color reaction was developed by incubation with 100 ul of 0-phenylenedi-amine (OPD) dihydrochloride (Sigma p-7288) at a concentration of 0.4 mg/ml in 0.05 M phosphate citrate buffer, pH 5.0 supplemented with 4 ul of 30% hydrogen peroxide (Aldrich) for 10 ml mixture. To detect the level of NST500 compounds that were bound to CL, parallel wells were incubated with streptavidin conugated to OPD (SA-OPD, Jackson Immunoresearch lab.), that specifically recognize the biotinylated NST 500 compounds. The resulting colour changes were recorded at 405 nm using a Bio Tek Elx800 Eliza reader.

BeWo cells = assay: Binding to single trophoblast BeWo cells, fluorescent microscopy; format: cell-based, Human
Experimental: The Human choriocarcinoma cell line BeWo that express low levels of PS on its plasma membrane (Rote N S et al., 1995, American J. of Reproductive Immunology 33, 114–121), was obtained from ECACC, cat # 86082803 and maintained in Ham's F12+ medium (01095-1A, Bet-Haemek, Israel). The medium was supplemented with 2mM of L-Glutamine; 100 units/ml of penicillin; 100 μg/ml of streptomycin, and 10% fetal calf serum (Bet-Haemek). The cells were passaged using 0.05% trypsine/EDTA (03-054-1B, Bet-Haemek,).

[3] = test system: Russell Viper Venom (RVV)-mediated clotting; assay: RVV coagulation test in normal plasma; format: biochemical
Experimental: Reactions were started by mixing 100 μl of RVV reagent, and 100 μl of quality control plasma collected from normal individuals (84670-11, Instrumentation Laboratory, Italy). Clotting time was detected by visual inspection following mixing the reaction ingredients in a test tube, until the suspension could no longer be aspirated with a pastuer pipette. Clotting time was measured by two separate researchers.
100 μl of LA screen was then added and clotting time was detected as described.
The control clotting time, when no compound was added to normal plasma was 40 seconds.

## Myristate-KVSFFCKNKEKKC-K (SEQ ID NO:1) (biotin) [NST513]
HUVEC cells [1]
  less potent than NST516 in blocking anti β2 GPI binding: 50%
thrombin
  direct effect on thrombin activity: no direct inhibitory effect on thrombin activity
Activated platelets
  binding intensity (FITC mean value), activated vs control non-treated platelets: 20 times
Activated platelets; activated (A23187) vs control platelets
  increase in the percentage of platelets stained with FITC upon activation: 6 fold
HUVEC cells [2]
  delay in thrombin generation: 2.5 min
  thrombin generation by HUVEC cells: dramatic inhibition of thrombin generation; also recorded: fully block thrombin generation; also recorded: slight inhibition of thrombin generation; also recorded: further delayed the lag period; also recorded: total blockage of thrombin formation
  thrombin generation by HUVEC cells, dose response: dose dependent inhibition of thrombin generation
cardiolipin; 1 μM
  displacement of plasma derived from SLE patients from cardiolipin: did not exhibit displacement
cardiolipin; 10 μM
  displacement of plasma derived from SLE patients from cardiolipin: almost complete displacement
cardiolipin; 1–10 μM
  inhibition of binding of plasma derived from SLE patients to cardiolipin, dose response: marked displacement of IgG
BeWo cells
  binding to BeWo cells: Typical membrane labeling is observed; also recorded: Binding of the compound to the whole population of BeWo cells was demonstrated
[3]; RVV clotting time, read-out: EC50 (effective dose of 50%)
  EC50: 3 to 5 µM
[3]; RVV test, normal plasma, 2.5–20 μM, control 40 seconds
  prolongation of clotting time (factor): 3.75 and 3.5
